Source: patent EP1285918A1, “C7 Ester substituted taxanes as antitumor agents” (Florida State University Research Foundation, Inc., priority 2001, dated 2003)
Where two headings read alike, the source gives them in different places.

Key:
[1] = system: Panc-1 Human Pancreatic Carcinoma Xenografts
Method in brief: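 Female NCr-nude mice with subcutaneous flank Panc-1 fragments, six per group, dosed i.v. once on Day 1 at estimated MTD (Taxotere 70 mg/kg); vehicle controls. Survival taken as days until tumor reached 1.5 g; complete response = nonpalpable tumor at Day 63, partial = smaller than Day 1 size.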

[2] = system: VM46 Human Colon Carcinoma Xenografts
Method in brief: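 Female NCr-nude mice bearing subcutaneous VM46 colon carcinoma fragments, six per group, given compounds i.v. once on Day 1 at estimated MTD; vehicle i.v. for controls. Endpoints to Day 64: mean days of survival (tumor reaching 1.5 g), toxic deaths, survivors, complete/partial responses and stable disease.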

[3] = system: A375 Human Melanoma Xenografts; conditions: A375; for Mean Score: tumor score 1 to 10, group mean
Method in brief: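 Female NCr-nude mice carrying subcutaneous flank A375 implants (1 mm^3), six per group (Taxotere seven). Single i.v. dose on Day 1 at each agent's estimated MTD (Taxotere 70 mg/kg), vehicle i.v. for controls; study ended Day 60. Survival days counted to 2.0 g tumor; complete response = non-palpable tumor at study end, partial = smaller than on Day 1.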

[4] = system: A375 Human Melanoma Xenograft
Method: Female nu/nu mice (6-8 weeks of age; implanted subcutaneously with 1 mm^3 A375 melanoma fragments in the flank) were sorted into one control and four treatment groups of ten mice each (group mean tumor size of 96-98 mg). […] The study was terminated on Day 60.
The mean days of survival is the number of days after which a neoplasm reached a size of 2.0 g and the animal was euthanized. A complete response is obtained if the tumor is not palpable at the end of the study. A partial response is obtained if the tumor shrinks to a size smaller than its size on Day 1 of the study.

[5] = system: DU 145 Human Prostate Carcinoma Xenografts; conditions: DU145; for Mean Score: tumor score 1 to 10, group mean
Method in brief: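 Male NCr-nude mice bearing subcutaneous DU145 fragments (five per group) received one i.v. dose at each agent's estimated MTD on Day 1, with vehicle controls; the study ran to Day 91. Survival was counted until tumour reached 1.5 g. Complete or partial response was scored by palpability or shrinkage below Day-1 size.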

[6] = 15 mg/kg i.p. qd x 5, 6 mice/group, study end Day 63
[7] = 24 mg/kg i.v. qd x 1 as two split doses, 6 mice/group, study end Day 63
[8] = 15 mg/kg i.p. qd x 5, 6 mice/group, study end Day 64
[9] = 24 mg/kg i.v. qd x 1, 6 mice/group, study end Day 64
[10] = VM46, Taxol 24 mg/kg i.v. qd x 1, 6 mice, Day 64
[11] = Taxol i.p. 18 mg/kg qd x 5, 6 mice, Day 60
[12] = i.v. qd x 1 (mg/kg: Taxol 24, 1351 107.6, 1393 72.6, 1401 107.6, 1418 107.6, 1424 195.1, Taxotere 70), Day 60
[13] = 40 mg/kg single oral bolus, 10 mice/group, study end Day 60
[14] = Taxol i.p. 18 mg/kg qd x 5, 5 mice, Day 91
[15] = i.v. qd x 1 (mg/kg: Taxol 24, 1351 107.6, 1393 72.6, 1401 107.6, 1418 107.6, 1424 195.1), 5 mice/group, Day 91

CC(=O)O[C@H]1C(=O)[C@@]2(C)[C@H]([C@H](OC(=O)c3ccccc3)[C@]3(O)C[C@H](OC(=O)[C@H](O)[C@@H](NC(=O)c4ccccc4)c4ccccc4)C(C)=C1C3(C)C)[C@]1(OC(C)=O)CO[C@@H]1C[C@@H]2O [Taxol, paclitaxel, reference compound]
Complete Response [1, 6]: 0
Mean Score [1, 6]: 1.2 ± 1.2
Partial Response [1, 6]: 1
Stable Disease [1, 6]: 0
Survivors [1, 6]: 1
Toxic Deaths [1, 6]: 4
Complete Response [1, 7]: 0
Mean Score [1, 7]: 2.2 ± 0.8
Partial Response [1, 7]: 0
Stable Disease [1, 7]: 1
Survivors [1, 7]: 1
Toxic Deaths [1, 7]: 1
MDS (n) ([1]; 24 mg/kg i.v. qd x 1 as two split doses, 6 mice/group, study end Day 63, days until tumor reached 1.5 g): 34.7 ± 3.4 days
Toxic Deaths ([1]; Panc-1, Taxol i.p. 15 mg/kg qd x 5, 6 mice): four
Toxic Deaths ([1]; Panc-1, i.v. qd x 1 (mg/kg: Taxol 24, 1351 75.32, 1393 72.6, 1401 107.6, 1418 107.6, 1424 195.1), 6 mice/group): One
MDS ([1]; Panc-1, i.v. qd x 1 (mg/kg: Taxol 24, 1351 75.32, 1393 72.6, 1401 107.6, 1418 107.6, 1424 195.1), 6 mice/group, 1.5 g cut-off, Day 63): 34.7 days
Stable Disease ([1]; Panc-1, i.v. qd x 1 (mg/kg: Taxol 24, 1393 72.6, 1418 107.6), 6 mice/group, Day 63): one
Complete Response [2, 8]: 0
Mean Score [2, 8]: 1.8 ± 1.3
Partial Response [2, 8]: 1
Stable Disease [2, 8]: 0
Survivors [2, 8]: 1
Toxic Deaths [2, 8]: 3
MDS (n) ([2]; 15 mg/kg i.p. qd x 5, 6 mice/group, study end Day 64, days until tumor reached 1.5 g): 36.1 ± 12.2 (2) days
Complete Response [2, 9]: 0
Mean Score [2, 9]: 3.8 ± 1.4
Partial Response [2, 9]: 1
Stable Disease [2, 9]: 1
Survivors [2, 9]: 2
Toxic Deaths [2, 9]: 0
Partial Response [2, 10]: one
Stable Disease [2, 10]: one
toxicity ([2]; VM46, Taxol i.p. 15 mg/kg qd x 5): excessively toxic
mortalities ([2]; VM46, Taxol i.p. 15 mg/kg qd x 5, 6 mice): three
toxicity ([3]; Taxol i.p. 18 mg/kg qd x 5): highly toxic
Complete Response [3, 11]: 0
Partial Response [3, 11]: 0
Stable Disease [3, 11]: 0
Survivors [3, 11]: 0
Mean Score ([3]; Taxol i.p. 18 mg/kg qd x 5): 0±0
MDS (n) ([3]; i.v. qd x 1 (mg/kg: Taxol 24, 1351 107.6, 1393 72.6, 1401 107.6, 1418 107.6, 1424 195.1, Taxotere 70), 2.0 g cut-off, Day 60): 18.1 ± 0.6 (4) days
Complete Response [3, 12]: 0
Partial Response [3, 12]: 0
Stable Disease [3, 12]: 0
Survivors [3, 12]: 0
Toxic Deaths [3, 12]: 2
Mean Score ([3]; i.v. qd x 1 (mg/kg: Taxol 24, 1351 107.6, 1393 72.6, 1401 107.6, 1418 107.6, 1424 195.1, Taxotere 70)): 0.8 ± 0.3
survival extension compared to Group 1 controls ([3]; i.v. qd x 1 (mg/kg: Taxol 24, 1393 72.6, 1418 107.6, Taxotere 70)): 26%
Complete Response [4, 13]: 0
Partial Response [4, 13]: 1
Stable Disease [4, 13]: 1
Survivors [4, 13]: 2
Toxic Deaths [4, 13]: 0
MDS (n) ([4]; 40 mg/kg single oral bolus, 10 mice/group, study end Day 60, days until tumor reached 2.0 g): 23.7 ± 3.0 (8) days
activity ([4]; A375, paclitaxel 40 mg/kg single oral bolus (Group 2)): not active
increase in survival compared to Group 1 controls ([5]; Taxol 24 mg/kg i.v. qd x 1): 9%
toxicity ([5]; Taxol i.p. 18 mg/kg qd x 5): highly toxic
weight loss ([5]; Taxol i.p. 18 mg/kg qd x 5): more than 20%
Complete Response [5, 14]: 0
Partial Response [5, 14]: 0
Stable Disease [5, 14]: 0
Survivors [5, 14]: 0
Mean Score ([5]; Taxol i.p. 18 mg/kg qd x 5): 0 ± 0
MDS (n) ([5]; i.v. qd x 1 (mg/kg: Taxol 24, 1351 107.6, 1393 72.6, 1401 107.6, 1418 107.6, 1424 195.1), 5 mice/group, 1.5 g cut-off, Day 91): 37.4 ± 8.9 (3) days
Complete Response [5, 15]: 0
Partial Response [5, 15]: 0
Stable Disease [5, 15]: 1
Survivors [5, 15]: 1
Mean Score ([5]; i.v. qd x 1 (mg/kg: Taxol 24, 1351 107.6, 1393 72.6, 1401 107.6, 1418 107.6, 1424 195.1)): 2 ± 1
